This passage reports AC50 results from patent US20230365592A1 (Agios Pharmaceuticals, Inc., priority 2022, published 2023).

As usually defined, the AC50 is the concentration giving half of the maximal activity seen.

Molecules are shown by their SMILES.

The assay deals with T1, human PAH with the R408W mutation (Homo sapiens, UniProt P00439, R408W).
T1 construct: expressed in transfected cells
T1 sequence (P00439 1-452 R408W): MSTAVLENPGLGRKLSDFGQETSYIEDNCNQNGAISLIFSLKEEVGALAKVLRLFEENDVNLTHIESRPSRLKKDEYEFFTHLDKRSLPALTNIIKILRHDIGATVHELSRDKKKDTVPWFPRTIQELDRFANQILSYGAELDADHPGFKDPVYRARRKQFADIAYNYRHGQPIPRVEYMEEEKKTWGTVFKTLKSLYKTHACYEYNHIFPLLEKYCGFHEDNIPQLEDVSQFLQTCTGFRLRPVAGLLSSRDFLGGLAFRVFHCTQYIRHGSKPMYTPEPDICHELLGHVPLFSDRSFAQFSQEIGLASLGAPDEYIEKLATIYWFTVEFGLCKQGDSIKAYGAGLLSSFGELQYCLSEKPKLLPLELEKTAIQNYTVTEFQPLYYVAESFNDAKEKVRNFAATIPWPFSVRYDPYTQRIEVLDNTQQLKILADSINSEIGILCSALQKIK
Kind of assay: Cell Based Phenylalanine Flux Assay.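 Also: after compound treatment, cells received sepiapterin plus isotope-labelled Phenylalanine for 4 hours, then labelled Tyrosine in the medium was quantified, 10-point 2-fold dilution series run in duplicate.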 The following applies: A375 cells expressing human R408W PAH; 24 hrs compound incubation; 13C-Tyrosine by LC-MS; average where tested multiple times; read-out: AC50.
With `O=C(c1oc(C2(O)CC2)nc1C(F)F)N1CCc2[nH]cnc2[C@H]1c1cc2ccccn2n1` [Example 994, (S)-(4-(difluoromethyl)-2-(1-hydroxycyclopropyl)oxazol-5-yl)(4-(pyrazolo[1,5-a]pyridin-2-yl)-6,7-dihydro-1H-imidazo[4,5-c]pyridin-5(4H)-yl)methanone], the AC50 is < 0.5 µM.

Turning to `Cc1nc(C(C)(C)O)oc1C(=O)N1CCc2[nH]cnc2[C@H]1c1cc2c(F)cccn2n1` [Example 1000, (S)-(4-(4-fluoropyrazolo[1,5-a]pyridin-2-yl)-6,7-dihydro-1H-imidazo[4,5-c]pyridin-5(4H)-yl)(2-(2-hydroxypropan-2-yl)-4-methyloxazol-5-yl)methanone], the concentration at half-maximal activity (AC50) was 0.5 to 1 µM.

As for `O=C(c1ocnc1C(F)F)N1CCc2[nH]cnc2[C@@H]1c1cc2c(C(F)(F)F)cccn2n1` [Example 1003, (R)-(4-(difluoromethyl)oxazol-5-yl)(4-(4-(trifluoromethyl)pyrazolo[1,5-a]pyridin-2-yl)-6,7-dihydro-1H-imidazo[4,5-c]pyridin-5(4H)-yl)methanone], the AC50 was 0.5 to 1 µM.

For `Cc1ccn2nc([C@H]3c4nc[nH]c4CCN3C(=O)c3ocnc3C(F)F)cc2c1` [Example 1005, (R)-(4-(difluoromethyl)oxazol-5-yl)(4-(5-methylpyrazolo[1,5-a]pyridin-2-yl)-6,7-dihydro-1H-imidazo[4,5-c]pyridin-5(4H)-yl)methanone], the AC50 is < 0.5 µM.

On to `O=C(c1oc(-c2ccccn2)nc1C(F)F)N1CCc2[nH]cnc2[C@@H]1c1cc2c(F)cccn2n1` [Example 1007, (R)-(4-(difluoromethyl)-2-(pyridin-2-yl)oxazol-5-yl)(4-(4-fluoropyrazolo[1,5-a]pyridin-2-yl)-6,7-dihydro-1H-imidazo[4,5-c]pyridin-5(4H)-yl)methanone], for which the AC50 lay in the range of 0.5 to 1 µM.

As for `Cc1cccn2nc([C@H]3c4nc[nH]c4CCN3C(=O)c3oc(-c4cnn(C)c4)nc3C(F)F)cc12` [Example 1009, (R)-(4-(difluoromethyl)-2-(1-methyl-1H-pyrazol-4-yl)oxazol-5-yl)(4-(4-methylpyrazolo[1,5-a]pyridin-2-yl)-6,7-dihydro-1H-imidazo[4,5-c]pyridin-5(4H)-yl)methanone], the AC50 fell in the range of 0.5 to 1 µM.

`Cc1nnc(C(=O)N2CCc3[nH]cnc3[C@H]2c2cc3c(C)cccn3n2)o1` [Example 1010, (S)-(5-methyl-1,3,4-oxadiazol-2-yl)(4-(4-methylpyrazolo[1,5-a]pyridin-2-yl)-6,7-dihydro-1H-imidazo[4,5-c)pyridin-5(4H)-yl)methanone]: the AC50 was in the range of 0.5 to 1 µM.

With `Cc1cccn2nc([C@@H]3c4nc[nH]c4CCN3C(=O)c3nnc(N4CCC(F)CC4)o3)cc12` [Example 1012, (S)-(5-(4-fluoropiperidin-1-yl)-1,3,4-oxadiazol-2-yl)(4-(4-methylpyrazolo[1,5-a]pyridin-2-yl)-6,7-dihydro-1H-imidazo[4,5-c]pyridin-5(4H)-yl)methanone], the AC50 lay within 0.5 to 1 µM.

As to `Cc1cccn2nc([C@H]3c4nc[nH]c4CCN3C(=O)c3nnc(N4CCC(F)CC4)o3)cc12` [Example 1013, (R)-(5-(4-fluoropiperidin-1-yl)-1,3,4-oxadiazol-2-yl)(4-(4-methylpyrazolo[1,5-a]pyridin-2-yl)-6,7-dihydro-1H-imidazo[4,5-c]pyridin-5(4H)-yl)methanone], the AC50 is > 5 µM.

As to `O=C(c1nnc(N2CCC(F)CC2)o1)N1CCc2[nH]cnc2[C@H]1c1cc2c(F)cccn2n1` [Example 1014, (S)-(5-(4-fluoropiperidin-1-yl)-1,3,4-oxadiazol-2-yl)(4-(4-fluoropyrazolo[1,5-a]pyridin-2-yl)-6,7-dihydro-1H-imidazo[4,5-c]pyridin-5(4H)-yl)methanone], the concentration at half-maximal activity (AC50) is < 0.5 µM.

Take `O=C(c1nnc(N2CCC(F)CC2)o1)N1CCc2[nH]cnc2[C@@H]1c1cc2c(F)cccn2n1` [Example 1015, (R)-(5-(4-fluoropiperidin-1-yl)-1,3,4-oxadiazol-2-yl)(4-(4-fluoropyrazolo[1,5-a]pyridin-2-yl)-6,7-dihydro-1H-imidazo[4,5-c]pyridin-5(4H)-yl)methanone]: the AC50 was > 5 µM.

Take `Cc1cccn2nc([C@@H]3c4nc[nH]c4CCN3C(=O)c3nnc(-c4ccnn4C)o3)cc12` [Example 1016, (S)-(5-(1-methyl-1H-pyrazol-5-yl)-1,3,4-oxadiazol-2-yl)(4-(4-methylpyrazolo[1,5-a]pyridin-2-yl)-6,7-dihydro-1H-imidazo[4,5-c]pyridin-5(4H)-yl)methanone]: the AC50 is < 0.5 µM.

As for `Cc1cccn2nc([C@H]3c4nc[nH]c4CCN3C(=O)c3nnc(-c4ccnn4C)o3)cc12` [Example 1017, (R)-(5-(1-methyl-1H-pyrazol-5-yl)-1,3,4-oxadiazol-2-yl)(4-(4-methylpyrazolo[1,5-a]pyridin-2-yl)-6,7-dihydro-1H-imidazo[4,5-c]pyridin-5(4H)-yl)methanone], the concentration at half-maximal activity (AC50) was > 5 µM.

Turning to `Cn1nccc1-c1nnc(C(=O)N2CCc3[nH]cnc3[C@H]2c2cc3c(F)cccn3n2)o1` [Example 1018, (S)-(4-(4-fluoropyrazolo[1,5-a]pyridin-2-yl)-6,7-dihydro-1H-imidazo[4,5-c]pyridin-5(4H)-yl)(5-(1methyl-1H-pyrazol-5-yl)-1,3,4-oxadiazol-2-yl)methanone], the AC50 was < 0.5 µM.

Turning to `Cn1nccc1-c1nnc(C(=O)N2CCc3[nH]cnc3[C@@H]2c2cc3c(F)cccn3n2)o1` [Example 1019, (R)-(4-(4-fluoropyrazolo[1,5-a]pyridin-2-yl)-6,7-dihydro-1H-imidazo[4,5-c]pyridin-5(4H)-yl)(5-(1-methyl-1H-pyrazol-5-yl)-1,3,4-oxadiazol-2-yl)methanone], the concentration at half-maximal activity (AC50) was > 5 µM.

Turning to `Cc1cccc2cc([C@@H]3c4nc[nH]c4CCN3C(=O)c3nnc(C(C)(C)C)o3)nn12` [Example 1020, (S)-(5-(tert-butyl)-1,3,4-oxadiazol-2-yl)(4-(7-methylpyrazolo[1,5-a]pyridin-2-yl)-6,7-dihydro-1H-imidazo[4,5-c]pyridin-5(4H)-yl)methanone], the concentration at half-maximal activity (AC50) was < 0.5 µM.

As to `Cc1cccc2cc([C@H]3c4nc[nH]c4CCN3C(=O)c3nnc(C(C)(C)C)o3)nn12` [Example 1021, (R)-(5-(tert-butyl)-1,3,4-oxadiazol-2-yl)(4-(7-methylpyrazolo[1,5-a]pyridin-2-yl)-6,7-dihydro-1H-imidazo[4,5-c]pyridin-5(4H)-yl)methanone], the concentration at half-maximal activity (AC50) lay in the range of 1 to 5 µM.

For `CC(C)(F)c1nnc(C(=O)N2CCc3[nH]cnc3[C@H]2c2cc3c(F)cccn3n2)o1` [Example 1024, (S)-(5-(2-fluoropropan-2-yl)-1,3,4-oxadiazol-2-yl)(4-(4-fluoropyrazolo[1,5-a]pyridin-2-yl)-6,7-dihydro-1H-imidazo[4,5-c]pyridin-5(4H)-yl)methanone], the AC50 is < 0.5 µM.

In the case of `CC(C)(F)c1nnc(C(=O)N2CCc3[nH]cnc3[C@@H]2c2cc3c(F)cccn3n2)o1` [Example 1025, (R)-(5-(2-fluoropropan-2-yl)-1,3,4-oxadiazol-2-yl)(4-(4-fluoropyrazolo[1,5-a]pyridin-2-yl)-6,7-dihydro-1H-imidazo[4,5-c]pyridin-5(4H)-yl)methanone], the half-maximal activity concentration (AC50) fell in the range of 1 to 5 µM.

As for `CC(C)(C)c1nnc(C(=O)N2CCc3[nH]cnc3[C@@H]2c2cc3c(F)cccn3n2)o1` [Example 1026, (R)-(5-(tert-butyl)-1,3,4-oxadiazol-2-yl)(4-(4-fluoropyrazolo[1,5-a]pyridin-2-yl)-6,7-dihydro-1H-imidazo[4,5-c]pyridin-5(4H)-yl)methanone], the AC50 was 1 to 5 µM.

For the molecule `CC(C)(C)c1nnc(C(=O)N2CCc3[nH]cnc3[C@H]2c2cc3c(F)cccn3n2)o1` [Example 1027, (S)-(5-(tert-butyl)-1,3,4-oxadiazol-2-yl)(4-(4-fluoropyrazolo[1,5-a]pyridin-2-yl)-6,7-dihydro-1H-imidazo[4,5-c]pyridin-5(4H)-yl)methanone], the AC50 is < 0.5 µM.

Take `O=C(c1nnc(-c2ccccn2)o1)N1CCc2[nH]cnc2[C@H]1c1cc2cccc(C(F)(F)F)n2n1` [Example 1028, (S)-(5-(pyridin-2-yl)-1,3,4-oxadiazol-2-yl)(4-(7-(trifluoromethyl)pyrazolo[1,5-a]pyridin-2-yl)-6,7-dihydro-1H-imidazo[4,5-c]pyridin-5(4H)-yl)methanone]: the half-maximal activity concentration (AC50) is < 0.5 µM.

As to `O=C(c1nnc(-c2ccccn2)o1)N1CCc2[nH]cnc2[C@@H]1c1cc2cccc(C(F)(F)F)n2n1` [Example 1029, (R)-(5-(pyridin-2-yl)-1,3,4-oxadiazol-2-yl)(4-(7-(trifluoromethyl)pyrazolo[1,5-a]pyridin-2-yl)-6,7-dihydro-1H-imidazo[4,5-c]pyridin-5(4H)-yl)methanone], the AC50 lay within 1 to 5 µM.

Take `Cn1ccc(-c2nnc(C(=O)N3CCc4[nH]cnc4[C@H]3c3cc4cccc(C(F)(F)F)n4n3)o2)n1` [Example 1030, (S)-(5-(1-methyl-1H-pyrazol-3-yl)-1,3,4-oxadiazol-2-yl)(4-(7-(trifluoromethyl)pyrazolo[1,5-a]pyridin-2-yl)-6,7-dihydro-1H-imidazo[4,5-c]pyridin-5(4H)-yl)methanone]: the concentration at half-maximal activity (AC50) was < 0.5 µM.

As to `Cn1cnc(-c2nnc(C(=O)N3CCc4[nH]cnc4[C@H]3c3cc4cccc(C(F)(F)F)n4n3)o2)c1` [Example 1032, (S)-(5-(1-methyl-1H-imidazol-4-yl)-1,3,4-oxadiazol-2-yl)(4-(7-(trifluoromethyl)pyrazolo[1,5-a]pyridin-2-yl)-6,7-dihydro-1H-imidazo(4,5-c]pyridin-5(4H)-yl)methanone], the AC50 was 0.5 to 1 µM.
